Patent US20230295087A1, “AGONISTS OF ROR GAMMAt” (BRISTOL-MYERS SQUIBB COMPANY, priority 2019, published 2023)

These molecules were tested against T1, human RORgT (Homo sapiens, UniProt P51449) (assay: RORgT Gal4 Luciferase Reporter Gene Assay). Details: engineered Jurkat cells overexpressing RORgT (LBD or full length) fused with Gal4 Luc reporter; 18 hours at 37° C.; luminescence.
T1 construct: expressed in transfected cells
T1 sequence (P51449 267-516): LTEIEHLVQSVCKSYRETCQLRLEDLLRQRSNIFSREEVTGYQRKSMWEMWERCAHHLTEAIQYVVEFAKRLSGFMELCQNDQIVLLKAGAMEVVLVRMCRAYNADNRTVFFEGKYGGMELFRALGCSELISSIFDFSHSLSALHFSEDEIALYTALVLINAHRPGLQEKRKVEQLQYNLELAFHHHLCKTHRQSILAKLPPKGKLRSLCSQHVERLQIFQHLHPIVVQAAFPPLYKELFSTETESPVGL
Format: cell-based
Outline: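 Jurkat cells expressing Gal4 Luc with either RORgT LBD (aa267-516) or full-length human RORgT, 10,000 cells/well, treated with compound (40 µM to 0.67 nM final, 3-fold dilutions) for 18 h at 37° C. Steady-Glo luminescence read; inhibition of constitutive activity as % signal-window reduction relative to a control compound.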

| SMILES | EC50 |
| --- | --- |
| CS(=O)(=O)N1CCC(CCC(=O)N2CC[C@@]3(S(=O)(=O)c4ccccc4)c4ccc(OCc5c(Cl)cccc5Cl)cc4CC[C@@H]23)CC1 [Example 103, 1-[(3aR,9bR)-9b-(benzenesulfonyl)-7-[(2,6-dichlorophenyl)methoxy]-1H,2H,3H,3aH,4H,5H,9bH-benzo[e]indol-3-yl]-3-(1-methanesulfonylpiperidin-4-yl)propan-1-one] | 259 nM |
| O=C(N1CC[C@@]2(S(=O)(=O)c3ccc(F)cc3)c3ccc(OCc4ccc(F)cc4Cl)cc3CC[C@@H]12)C1(O)CCS(=O)(=O)CC1 [Example 104, 4-[(3aR,9bR)-7-[(2-chloro-4-fluorophenyl)methoxy]-9b-(4-fluorobenzenesulfonyl)-1H,2H,3H,3aH,4H,5H,9bH-benzo[e]indole-3-carbonyl]-4-hydroxy-1λ^6-thiane-1,1-dione] | 5.6 nM |
| O=C(N1CC[C@@]2(S(=O)(=O)c3ccccc3)c3ccc(OCc4c(Cl)cccc4Cl)cc3CC[C@@H]12)C1(O)CCS(=O)(=O)CC1 [Example 105, 4-[(3aR,9bR)-9b-(benzenesulfonyl)-7-[(2,6-dichlorophenyl)methoxy]-1H,2H,3H,3aH,4H,5H,9bH-benzo[e]indole-3-carbonyl]-4-hydroxy-1λ^6-thiane-1,1-dione] | 7.9 nM |
| NC(=O)[C@H]1CC[C@H](C(=O)N2CC[C@@]3(S(=O)(=O)c4ccccc4)c4ccc(OCc5c(Cl)cccc5Cl)cc4CC[C@@H]23)CC1 [Example 106, (1r,4r)-4-[(3aR,9bR)-9b-(benzenesulfonyl)-7-[(2,6-dichlorophenyl)methoxy]-1H,2H,3H,3aH,4H,5H,9bH-benzo[e]indole-3-carbonyl]cyclohexane-1-carboxamide] | 2.8 nM |
| CC(=O)N[C@H]1CC[C@H](C(=O)N2CC[C@@]3(S(=O)(=O)c4ccc(F)cc4)c4ccc(OCc5c(F)cccc5C(F)(F)F)cc4CC[C@@H]23)CC1 [Example 108, N-[(1r,4r)-4-[(3aR,9bR)-7-{[2-fluoro-6-(trifluoromethyl)phenyl]methoxy} -9b-(4-fluorobenzenesulfonyl)-1H,2H,3H,3aH,4H,5H,9bH-benzo[e]indole-3-carbonyl]cyclohexyl]acetamide] | 131 nM |
| O=C(O)[C@H]1CC[C@H](C(=O)N2CC[C@@]3(S(=O)(=O)c4ccc(Cl)cc4)c4ccc(OCc5c(F)cccc5C(F)(F)F)cc4CC[C@@H]23)CC1 [Example 111, (1r,4r)-4-[(3aR,9bR)-9b-(4-chlorobenzenesulfonyl)-7-{[2-fluoro-6-(trifluoromethyl)phenyl]methoxy} -1H,2H,3H,3aH,4H,5H,9bH-benzo[e]indole-3-carbonyl]cyclohexane-1-carboxylic acid] | 2.7 nM |
| O=C(O)[C@H]1CC[C@](O)(C(=O)N2CC[C@@]3(S(=O)(=O)c4ccc(F)cc4)c4ccc(OCc5cc(Cl)ccc5Cl)cc4CC[C@@H]23)CC1 [Example 112, (1 s,4 s)-4-[(3aR,9bR)-7-[(2,5-dichlorophenyl)methoxy]-9b-(4-fluorobenzenesulfonyl)-1H,2H,3H,3aH,4H,5H,9bH-benzo[e]indole-3-carbonyl] -4-hydroxycyclohexane-1-carboxylic acid] | 3.6 nM |
| C[C@]1(C(=O)N2CC[C@@]3(S(=O)(=O)c4ccc(F)cc4)c4ccc(OCc5cc(Cl)ccc5Cl)cc4CC[C@@H]23)CC[C@H](C(=O)O)CC1 [Example 113, (1r,4r)-4-[(3aR,9bR)-7-[(2,5-dichlorophenyl)methoxy]-9b-(4-fluorobenzenesulfonyl)-1H,2H,3H,3aH,4H,5H,9bH-benzo[e]indole-3-carbonyl]-4-methylcyclohexane-1-carboxylic acid] | 3.1 nM |
| O=C(O)[C@H]1CC[C@H](C(=O)N2CC[C@@]3(S(=O)(=O)c4ccc(F)cc4)c4ccc(OCc5ccncc5Cl)cc4CC[C@@H]23)CC1 [Example 114, (1r,4r)-4-[(3aR,9bR)-7-[(3-chloropyridin-4-yl)methoxy]-9b-(4-fluorobenzenesulfonyl)-1H,2H,3H,3aH,4H,5H,9bH-benzo[e]indole-3-carbonyl]cyclohexane-1-carboxylic acid] | 53 nM |
| O=C(O)[C@H]1CC[C@H](C(=O)N2CC[C@@]3(S(=O)(=O)c4ccc(F)cc4)c4ccc(Oc5c(F)ccnc5F)cc4CC[C@@H]23)CC1 [Example 115, (1r,4r)-4-[(3aR,9bR)-7-[(2,4-difluoropyridin-3-yl)oxy]-9b-(4-fluorobenzenesulfonyl)-1H,2H,3H,3aH,4H,5H,9bH-benzo[e]indole-3-carbonyl]cyclohexane-1-carboxylic acid] | 25 nM |
| O=C(O)[C@H]1CC[C@H](C(=O)N2CC[C@@]3(S(=O)(=O)c4ccc(F)cc4)c4ccc(Oc5cccnc5F)cc4CC[C@@H]23)CC1 [Example 116, (1r,4r)-4-[(3aR,9bR)-9b-(4-fluorobenzenesulfonyl)-7-[(2-fluoropyridin-3-yl)oxy]-1H,2H,3H,3aH,4H,5H,9bH-benzo[e]indole-3-carbonyl]cyclohexane-1-carboxylic acid] | 51 nM |
| O=C(C1CCS(=O)(=O)CC1)N1CC[C@@]2(S(=O)(=O)c3ccc(F)cc3)c3ccc(Oc4cccnc4F)cc3CC[C@@H]12 [Example 117, 4-[(3aR,9bR)-9b-(4-fluorobenzenesulfonyl)-7-[(2-fluoropyridin-3-yl)oxy]-1H,2H,3H,3aH,4H,5H,9bH-benzo[e]indole-3-carbonyl]-1λ^6-thiane-1,1-dione] | 7.1 nM |
| O=C(C1CCS(=O)(=O)CC1)N1CC[C@@]2(S(=O)(=O)c3ccc(F)cc3)c3ccc(Sc4c(Cl)cccc4Cl)cc3CC[C@@H]12 [Example 118, 4-[(3aR,9bR)-7-[(2,6-dichlorophenyl)sulfanyl]-9b-(4-fluorobenzenesulfonyl)-1H,2H,3H,3aH,4H,5H,9bH-benzo[e]indole-3-carbonyl]-1λ^6-thiane-1,1-dione] | 1.3 nM |
| O=C(O)[C@H]1CC[C@H](C(=O)N2CC[C@@]3(S(=O)(=O)c4ccc(F)cc4)c4ccc(Sc5c(Cl)cccc5Cl)cc4CC[C@@H]23)CC1 [Example 119, (1r,4r)-4-[(3aR,9bR)-7-[(2,6-dichlorophenyl)sulfanyl]-9b-(4-fluorobenzenesulfonyl)-1H,2H,3H,3aH,4H,5H,9bH-benzo[e]indole-3-carbonyl]cyclohexane-1-carboxylic acid] | 1.4 nM |
| O=C(O)[C@H]1CC[C@H](C(=O)N2CC[C@@]3(S(=O)(=O)c4ccc(F)cc4)c4ccc(OCc5ccccc5)cc4CC[C@@H]23)CC1 [Example 120, (1r,4r)-4-[(3aR,9bR)-7-(benzyloxy)-9b-(4-fluorobenzenesulfonyl)-1H,2H,3H,3aH,4H,5H,9bH-benzo[e]indole-3-carbonyl]cyclohexane-1-carboxylic acid] | 18 nM |
| O=C(O)[C@H]1CC[C@H](C(=O)N2CC[C@@]3(S(=O)(=O)c4ccc(F)cc4)c4ccc(OCc5c(Cl)cccc5Cl)cc4CC[C@@H]23)CC1 [Example 121, (1r,4r)-4-[(3aR,9bR)-7-[(2,6-dichlorophenyl)methoxy]-9b-(4-fluorobenzenesulfonyl)-1H,2H,3H,3aH,4H,5H,9bH-benzo[e]indole-3-carbonyl]cyclohexane-1-carboxylic acid] | 9.7 nM |
| NS(=O)(=O)CC(=O)N1CC[C@@]2(S(=O)(=O)c3ccc(F)cc3)c3ccc(OCc4c(Cl)cccc4Cl)cc3CC[C@@H]12 [Example 122, 2-[(3aR,9bR)-7-[(2,6-dichlorophenyl)methoxy]-9b-(4-fluorobenzenesulfonyl)-1H,2H,3H,3aH,4H,5H,9bH-benzo[e]indol-3-yl]-2-oxoethane-1-sulfonamide] | 127 nM |
